The Ki is a measure of affinity in units of concentration, obtained from inhibition or displacement. The low end stands for a stronger hold on the target, the high end for a looser hold on the target.

This note sets out measurements from patent US8088897B2, “Assay method for group transfer reactions” (BellBrook Labs, Inc., priority 2003, dated 2012).

Test [1] concerns the target T1, SULT1E1 (Homo sapiens, UniProt P49888).
T1 construct: made in house; host or cells: E. coli
T1 sequence (P49888 1-294): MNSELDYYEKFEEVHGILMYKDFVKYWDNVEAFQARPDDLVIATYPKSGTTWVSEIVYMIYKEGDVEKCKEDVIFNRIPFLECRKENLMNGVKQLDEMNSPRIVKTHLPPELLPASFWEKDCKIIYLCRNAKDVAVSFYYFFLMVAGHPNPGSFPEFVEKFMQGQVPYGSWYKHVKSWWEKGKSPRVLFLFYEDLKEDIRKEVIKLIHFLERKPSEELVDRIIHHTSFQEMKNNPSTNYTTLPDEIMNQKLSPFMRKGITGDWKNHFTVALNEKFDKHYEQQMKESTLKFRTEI
The test can be described thus: Inhibition of SULT1E1 measured with the FPIA-based assay. The test is classed as biochemical. As to the method:
Specifically, FIG. 25 is a graph showing inhibition of SULT1E1 by 2,6 Dichloro-4-nitrophenol (DCNP) measured with the FPIA-based assay. DCNP was serially diluted two-fold into wells in 46 uL of phosphate assay buffer (30 mM KPO4 (pH 6.5), 0.5 mg/mL BGG, 15 mM DTT, 1.6 mM MgCl2, 4 μM PAPS), followed by 50 μl of a 2× Antibody/tracer mix (5 uL 3642 Ab/2 nM Tracer C8-PAP-F14), and 200 ng of SULTIE in a total volume of 100 μl. The plate was incubated at room temp for 30 min, and read on the Tecan Ultra. AmP values were calculated by subtracting the SULT1E reactions from the no SULTIE controls. All values represent the mean of replicates.

Test [2] deals with T1, SULT1E1. The test can be described thus: 35S-PAPS radioassay of SULT1E1 inhibition. The test is classed as biochemical. To be noted: 35S-radioassay.

In the case of `O=[N+]([O-])c1cc(Cl)c(O)c(Cl)c1` [DCNP, 2,6 Dichloro-4-nitrophenol], the Ki came to 7.8 mM at SULT1E1 [1] and 11 mM on SULT1E1 [2].
